Test results as given in ChEMBL document CHEMBL5257109, “Development of actein derivatives as potent anti-triple negative breast cancer agents” (Bioorg Med Chem Lett, 2023).
The source made the active and inactive calls. The calls are words filed in the database; no cut-off is given here.

Legend:
MCF7 = assay: Antiproliferative activity against human MCF7 cells assessed as inhibition of cell growth incubated for 96 hrs by coulter counter analysis; assay type: functional, cell-based; settings: MCF7, 96 h
MDA-MB-231 [1] = assay: Antiproliferative activity against human MDA-MB-231 cells assessed as inhibition of cell growth; assay type: functional, cell-based
HCC1806 [2] = assay: Antiproliferative activity against human HCC1806 cells assessed as inhibition of cell growth incubated for 36 hrs by SRB assay; assay type: functional, cell-based; settings: HCC1806, 36 h
MDA-MB-231 [3] = assay: Antiproliferative activity against human MDA-MB-231 cells assessed as inhibition of cell growth incubated for 36 hrs by SRB assay; assay type: functional, cell-based; settings: MDA-MB-231, 36 h
MDA-MB-231 [4] = assay: Antiproliferative activity against human MDA-MB-231 cells overexpressing ERnegative and […] assessed as inhibition of cell growth incubated for 96 hrs by coulter counter analysis; assay type: functional, cell-based; settings: MDA-MB-231, 96 h
HCC1806 [5] = assay: Induction of cell cycle arrest in human HCC1806 cells assessed as increase in S phase cells at 10 uM incubated for 36 hrs by PI staining based flow cytometric analysis; assay type: functional
HCC1806 [6] = assay: Induction of cell death in human HCC1806 cells assessed as increase in p21 expression incubated for 36 hrs by Western blot analysis; assay type: functional, cell-based; settings: dose 10-20 µM
HCC1806 [7] = assay: Antiproliferative activity against human HCC1806 cells assessed as inhibition of cell growth at 20 uM incubated for 36 hrs by SRB assay relative to control; assay type: functional
HCC1806 [8] = assay: Induction of cell cycle arrest in human HCC1806 cells assessed as decrease in G2/M phase cells at 10 uM incubated for 36 hrs by PI staining based flow cytometric analysis; assay type: functional
MDA-MB-231 [9] = assay: Antiproliferative activity against human MDA-MB-231 cells assessed as inhibition of cell growth at 20 uM incubated for 36 hrs by SRB assay relative to control; assay type: functional
HCC1806 [10] = assay: Induction of cell death in human HCC1806 cells assessed as activation of p38 protein incubated for 36 hrs by Western blot analysis; assay type: functional, cell-based; settings: dose 10-20 µM

Compound	IC50 (MCF7) [µM]	IC50 (MDA-MB-231 [1]) [µM]	IC50 (HCC1806 [2]) [µM]	IC50 (MDA-MB-231 [3]) [µM]	IC50 (MDA-MB-231 [4]) [µM]	Activity (HCC1806 [5])	Activity (HCC1806 [6])	inhibition at 20 µM (HCC1806 [7]) [%]	Activity (HCC1806 [8])	inhibition at 20 µM (MDA-MB-231 [9]) [%]	Activity (HCC1806 [10])
CC(=O)O[C@@H]1C[C@@]23C[C@@]24CC[C@H](O[C@@H]2OC[C@@H](O)[C@H](O)[C@H]2O)C(C)(C)[C@@H]4CC[C@H]3[C@]2(C)C[C@@H]3O[C@]4(C[C@@H](C)[C@@H]3[C@@]12C)O[C@H](O)[C@@]1(C)O[C@@H]41 [ACTEIN]	14	60	> 20	> 20	74						
CC(=O)O[C@@H]1[C@@H](OC(C)=O)[C@H](O[C@H]2CC[C@]34C[C@]35C[C@@H](OC(C)=O)[C@]3(C)[C@H]6[C@H](C)C[C@]7(O[C@@H](OC(=O)CCC(=O)O)[C@@]8(C)O[C@@H]78)O[C@H]6C[C@@]3(C)[C@@H]5CC[C@H]4C2(C)C)OC[C@H]1OC(C)=O			2.78	9.11		Active	Dose-Dependent Effect	> 50	Active	> 50	Dose-Dependent Effect
